Counter-ions that a name gives are not always drawn. Like-named read-outs stand apart in the source and are kept apart here.
What was measured:
[1] = MIV-701/MIV-06404 plasma exposure ratio in cat; type: in vivo; conditions: for MIV-701/MIV-06404 exposure ratio: D13 (repeated); for MIV-701/MIV-06404 ratio: single oral administration (D0), exposure ratio
Experimental: (§1) MIV-701 besylate salt was administered once daily for 14 days to 4 healthy cats at three increasing doses: 2 mg/kg, 10 mg/kg and 50 mg/kg.
(§2) Each treatment period can be resumed as follows: • J0 (T+24h): first administration, withdrawal of blood samples for pharmacokinetic and plasma CTX-1 assessment (pre-dose and 0.5h, 1h, 2h, 4h, 8h and 24h after first drug administration), pre-dose blood samples for hematology and clinical biochemistry (baseline values for safety assessment). • J5 ([…]) and J8: pre-dose blood samples. • J13: last administration, withdrawal of plasma samples for pharmacokinetic and plasma CTX-1 assessment (pre-dose and 0.5h, 1h, 2h, 4h, 8h and 24h after last drug administration), pre-dose sampling for hematology and clinical biochemistry (baseline values for safety assessment). • J15 to J≥19: washout period.
After centrifugation of blood samples plasma aliquots were stored at -20°C._After thawing on ice, 30 µL of plasma were transferred into 1.5 ml microtube containing 270 µL acetonitrile. Microtubes were then vigorously stirred and then centrifuged (12000 rpm, 10 min, 4°C) and the supernatant was transferred in Matrix tube for LC-MS/MS analysis.
Equipment: LC-MS/MS Acquity I Class-Wevo TQD (Waters®): - Acquity I Class ∘ Column: Waters® Acquity BEH C8, 50*2.1mm, 1.7 µm (40°C) ∘ Mobile phase: • ▪ A: Ammonium Formate 5mM, pH=3.8 • ▪ B: Ammonimuformate 5 mM in CH3CN 5% aqueous, pH=3.8 ∘ Injection volume: 1 µL ∘ Speed: 600 µL/min ∘ Gradient: […]
- Xevo TQD • ∘ Source temperature: 150°C • ∘ Desolvatation temperature: 600°C • ∘ Cone gaz speed: 50L/h • ∘ Desolvatation gaz speed: 1200L/h - Analytes MS characteristics

[2] = human healthy volunteers, cited from earlier work; for MIV-701/MIV06404 ratio: single oral administration
[3] = test system: dogs with alveolar bone loss induced by spontaneously developed periodontal disease; assay: Alveolar bone loss parameters by CBCT-scan and X-ray radiography in dogs with periodontal disease; type: in vivo; conditions: CTX-1 responders, Day-90 vs Day-0
Experimental: The present study was performed on 10 Beagle dogs suffering from alveolar bone loss induced by spontaneously developed periodontal disease. All dogs were treated with MIV-701 besylate salt for minimum 30 day and maximum 90 days, depending on the tolerance at intermediate visits. The product is administrated to the dog by its owner at home, once a day with a meal.
There were two treatment groups: • Group A (5 dogs) with a dose of 25 mg/kg. • Group B (5 dogs) with a dose of 50 mg/kg.
Dental imaging was performed at visit V2 (Day 0) and visit V5 (90t 3 days).
Each time a full mouth CBCT-scan was performed together with dental radiographs of selected teeth for the study. The results of these exams were recorded in IMAGING FORM by the Investigator.
Full mouth cone-beam computed tomography (NewTom, 5G XL, Bologna, Italy) was performed at visit V2 (Day 0) and visit V5 (Day 90t 3 days).
The exam was performed only in dogs recruited in Polish site. It was performed under general anesthesia of Investigator's choice and aim at alveolar bone loss measurement.
Scans were analyzed with the use of NNT viewer, software provided by the manufacturer (version: 10.1; QR SRL, Verona, Italy). At both times, the volumetric assessment of dentition was set up for the same high-resolution mode (10 × 10 cm with 0.15 mm layers). Both readings were made in the same orientations of axes and locations measuring alveolar bone loss with the use of maximum magnification (Gawro, Strøm et Nemec 2022). To evaluate the effect of the treatment on the alveolar bone loss, the following three measurements (De Faria Vasconcelos et al. 2012) were performed on the selected teeth for the study: • 1. The height of the alveolar crest (AC), measured from the cementoenamel junction (CEJ) to the upper rim of AC (Figure 12A). • 2. The depth of the defect, measured from the CEJ to the bottom of the defect (Figure 12B). • 3. The width of the defect, measured from the highest point of the AC to the dental root adjacent to the defect (Figure 12C).
Dental radiography was performed at visit V2 (Day 0) and visit V5 (Day 90t 3 days).
To evaluate the effect of the treatment on the alveolar bone loss, the following three measurements (De Faria Vasconcelos et al. 2012) were performed on the selected teeth for the study: • 1. The heigh of the alveolar crest (AC), measured from the cementoenamel junction (CEJ) to the upper rim of AC (Figure 13A). • 2. The depth of the defect, measured from the CEJ to the bottom of the defect (Figure 13B). • 3. The width of the defect, measured from the highest point of the AC to the dental root adjacent to the defect (Figure 13C).
These measurements were performed using digital ruler of the imaging software or external program (i.e., Image J) and recorded in the IMAGING FORM.

CTX-1 [4] = assay: Plasma CTX-1 (bone resorption marker) in healthy cats; type: in vivo; conditions: for pre-dose plasma CTX-1 during repeated administration: once-a-day oral 2 and 10 mg/kg, 14 days
Experimental: as §1
The three doses were consecutively administered for 14 days with a >5-day washout period between two dose levels.
as §2

CTX-1 [5] = assay: Plasma CTX-1 (bone resorption marker) in healthy beagle dogs; type: in vivo
Experimental: Compound Ib besylate salt (referred to as MIV-701 besylate salt) was administered once daily for 14 days to 3 healthy beagle dogs at three different doses: 1 mg/kg, 10 mg/kg and 100 mg/kg.
The doses were consecutively administered for 14 days with a >5-day washout period between two dose levels.
Each treatment period can be resumed as follows: • J0 (T+24h): first Compound Ib besylate salt administration, withdrawal of blood samples for pharmacokinetic and plasma CTX-1 assessment (pre-dose and 0.5h, 1h, 2h, 4h, 8h and 24h after drug administration), pre-dose blood samples for hematology and clinical biochemistry (baseline values for safety assessment). • J1 to J12: pre-dose blood samples • J13: last Compound Ib besylate salt administration, withdrawal of plasma samples for pharmacokinetic and plasma CTX-1 assessment (pre-dose and 0.5h, 1h, 2h, 4h, 8h and 24h after drug administration), pre-dose sampling for hematology and clinical biochemistry (baseline values for safety assessment). • J15-J≥19: washout period.

SMILES: CC(C)C[C@H](NC(=O)c1ccc(-c2csc(N3CCN(C)CC3)n2)cc1)C(=O)N1C[C@H](F)[C@H]2OCC(O)(O)[C@H]21 [MIV-701 besylate salt, N-[(S)-1-((3aS,6S,6aS)-6-Fluoro-S-oxo-hexahydro-furo[3,2-b]pyrrole-4-carbony)-3-methyl-butyl]-4-[2-(4-methyl-piperazin-1-yl)-thiazol-4-yl]-benzamide benzenesulphonate]
- MIV-701/MIV-06404 exposure ratio ([1]; 2 mg/kg): 5.0
- MIV-701/MIV-06404 exposure ratio ([1]; 10 mg/kg): 3.4
- MIV-701/MIV-06404 ratio ([1]; 2 mg/kg): 6.9
- MIV-701/MIV-06404 ratio ([1]; 10 mg/kg): 6.2
- MIV-701/MIV-06404 ratio ([1]; 50 mg/kg): 3.9
- MIV-701/MIV-06404 exposure ratio ([2]; single administrations, dose not stated): 0.03
- MIV-701/MIV06404 ratio ([2]; 25 mg): 0.01
- MIV-701/MIV06404 ratio ([2]; 75 mg): 0.02
- MIV-701/MIV06404 ratio ([2]; 150 mg): 0.03
- MIV-701/MIV06404 ratio ([2]; 300 mg): 0.04
- depth of the alveolar bone defect ([3]; CBCT-images): Only favorable trends
- width of the alveolar bone defect ([3]; CBCT-scan and X-ray radiography): significantly reduced
- height of the alveolar crest ([3]; CBCT-scan images): Significant improvements
- depth of the alveolar bone loss ([3]; X-ray images): significant improvements
- height of the alveolar crest ([3]; X-ray radiography): only favorable trends
- inhibition of plasma CTX-1 vs baseline (CTX-1 [4]; 10 mg/kg once a day, end of the 14 days treatment period): 60%
- time of CTX-1 inhibition peak after administration (CTX-1 [4]; D0, three doses tested): 4 h
- pre-dose plasma CTX-1 during repeated administration (CTX-1 [4]): rapid drop
- pre-dose plasma CTX-1 during repeated administration (CTX-1 [4]; listed as MIV-701-besylate): sustained inhibition
- CTX-1 plasma concentration 24 hours after administration (CTX-1 [4]; single dose, all doses tested): did not go back to pre-dose concentration
- reduction of plasma CTX-1 (CTX-1 [4]; single oral administration (D0) at 2, 10 and 50 mg/kg): comparable reduction of plasma CTX-1
- inhibition of pre-dose plasma CTX-1 vs baseline (CTX-1 [5]; 10 mg/kg once a day, D1 to end of 14 days): 40%
- time of CTX-1 inhibition peak after administration (CTX-1 [5]; D0, three doses tested): 8 h
- pre-dose plasma CTX-1 during repeated administration (CTX-1 [5]; once a day oral, D1 to end of 14 days): dose-dependent inhibition
- CTX-1 plasma concentration 24 hours after administration (CTX-1 [5]; single dose 10mg/kg and 100 mg/kg): did not go back to pre-dose concentration
- effect on plasma CTX-1 (CTX-1 [5]; single oral administration (D0) at 1 mg, 10 mg and 100 mg): dose-dependent effect

Reference: patent publication EP4613273A1, “TREATMENT OF BONE LOSS” (priority 2024, dated 2025)
